In patent publication US20240208968A1, “ALPHA V BETA 6 AND ALPHA V BETA 1 INTEGRIN INHIBITORS AND USES THEREOF” (DiCE Molecules SV, Inc., priority 2021, published 2024):

Key:
αvβ1 = αvβ1 (Homo sapiens, UniProt P05556+P06756); assay: Solid Phase Integrin αvβ1 Assay; type: binding
In short: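 Compound competes for αvβ1 binding to immobilized TGFb1-LAP (1 µg/mL coat) in Mn2+ (1 mM MnCl2), 2% BSA binding buffer over 90 min at room temperature, integrin added at 0.2 µg/mL. Read-out: streptavidin-HRP/TMB; IC50 from Levenberg-Marquardt four-parameter fit.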

αvβ6 = αvβ6 (Homo sapiens, UniProt P06756+P18564); assay: Solid Phase Integrin αvβ6 Assay; type: binding
Sequence of αvβ6 (P06756 31-992 limits assumed): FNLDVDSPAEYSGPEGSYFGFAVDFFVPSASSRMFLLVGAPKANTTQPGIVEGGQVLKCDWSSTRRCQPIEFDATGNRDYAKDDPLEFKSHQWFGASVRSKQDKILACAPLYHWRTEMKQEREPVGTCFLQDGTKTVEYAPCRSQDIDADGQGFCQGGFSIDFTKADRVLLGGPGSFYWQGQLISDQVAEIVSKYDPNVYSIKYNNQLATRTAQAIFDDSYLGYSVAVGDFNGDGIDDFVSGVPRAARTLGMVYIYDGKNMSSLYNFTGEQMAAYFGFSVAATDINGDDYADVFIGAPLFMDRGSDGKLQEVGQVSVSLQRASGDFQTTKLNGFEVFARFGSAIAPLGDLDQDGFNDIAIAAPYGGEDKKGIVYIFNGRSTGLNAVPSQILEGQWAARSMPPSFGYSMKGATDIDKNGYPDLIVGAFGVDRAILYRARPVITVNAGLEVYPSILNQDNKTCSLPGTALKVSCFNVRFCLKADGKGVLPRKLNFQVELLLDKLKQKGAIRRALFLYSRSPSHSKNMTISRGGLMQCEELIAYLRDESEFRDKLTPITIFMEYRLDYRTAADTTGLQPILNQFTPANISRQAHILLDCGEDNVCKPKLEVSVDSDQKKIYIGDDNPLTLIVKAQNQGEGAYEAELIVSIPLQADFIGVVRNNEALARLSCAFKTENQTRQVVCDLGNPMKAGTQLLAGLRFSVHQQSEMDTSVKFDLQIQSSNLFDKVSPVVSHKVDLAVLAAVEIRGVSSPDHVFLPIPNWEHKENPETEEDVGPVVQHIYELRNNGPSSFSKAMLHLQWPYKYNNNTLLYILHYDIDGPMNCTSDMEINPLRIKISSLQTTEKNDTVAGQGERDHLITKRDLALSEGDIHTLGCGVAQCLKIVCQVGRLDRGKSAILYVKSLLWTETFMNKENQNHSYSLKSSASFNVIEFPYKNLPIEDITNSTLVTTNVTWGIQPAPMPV
Sequence of αvβ6 (P18564 22-707 limits assumed): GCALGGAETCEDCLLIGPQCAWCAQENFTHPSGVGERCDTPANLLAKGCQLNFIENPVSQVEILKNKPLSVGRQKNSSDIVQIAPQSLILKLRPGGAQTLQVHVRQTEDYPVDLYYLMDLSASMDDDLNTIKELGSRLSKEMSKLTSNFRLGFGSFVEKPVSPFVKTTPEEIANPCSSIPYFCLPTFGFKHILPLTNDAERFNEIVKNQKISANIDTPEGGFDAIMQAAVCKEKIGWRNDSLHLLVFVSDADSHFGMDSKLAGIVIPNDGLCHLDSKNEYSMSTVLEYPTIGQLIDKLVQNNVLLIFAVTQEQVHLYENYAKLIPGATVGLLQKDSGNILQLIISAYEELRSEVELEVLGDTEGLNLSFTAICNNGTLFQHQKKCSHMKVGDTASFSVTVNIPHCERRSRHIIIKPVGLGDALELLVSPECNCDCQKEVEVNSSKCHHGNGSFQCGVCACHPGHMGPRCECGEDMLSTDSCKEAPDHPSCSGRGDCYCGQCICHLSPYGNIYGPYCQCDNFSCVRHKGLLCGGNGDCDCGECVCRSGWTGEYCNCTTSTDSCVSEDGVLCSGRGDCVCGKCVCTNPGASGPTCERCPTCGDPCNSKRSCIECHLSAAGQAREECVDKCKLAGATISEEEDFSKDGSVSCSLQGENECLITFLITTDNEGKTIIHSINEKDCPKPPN
In short: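 Inhibition of αvβ6 binding to immobilized recombinant TGFb1-LAP (1 μg/mL coating), 1 h at room temperature with 1 mM MnCl2 in BSA/TBST buffer, integrin diluted to 0.2 μg/mL before addition. Streptavidin-HRP/TMB read-out; four-parameter logistic fitting gave IC50.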

Sequence of αvβ1 (P06756 31-992 limits assumed): as the sequence (P06756 31-992 limits assumed) above
Sequence of αvβ1 (P05556 21-728 limits assumed): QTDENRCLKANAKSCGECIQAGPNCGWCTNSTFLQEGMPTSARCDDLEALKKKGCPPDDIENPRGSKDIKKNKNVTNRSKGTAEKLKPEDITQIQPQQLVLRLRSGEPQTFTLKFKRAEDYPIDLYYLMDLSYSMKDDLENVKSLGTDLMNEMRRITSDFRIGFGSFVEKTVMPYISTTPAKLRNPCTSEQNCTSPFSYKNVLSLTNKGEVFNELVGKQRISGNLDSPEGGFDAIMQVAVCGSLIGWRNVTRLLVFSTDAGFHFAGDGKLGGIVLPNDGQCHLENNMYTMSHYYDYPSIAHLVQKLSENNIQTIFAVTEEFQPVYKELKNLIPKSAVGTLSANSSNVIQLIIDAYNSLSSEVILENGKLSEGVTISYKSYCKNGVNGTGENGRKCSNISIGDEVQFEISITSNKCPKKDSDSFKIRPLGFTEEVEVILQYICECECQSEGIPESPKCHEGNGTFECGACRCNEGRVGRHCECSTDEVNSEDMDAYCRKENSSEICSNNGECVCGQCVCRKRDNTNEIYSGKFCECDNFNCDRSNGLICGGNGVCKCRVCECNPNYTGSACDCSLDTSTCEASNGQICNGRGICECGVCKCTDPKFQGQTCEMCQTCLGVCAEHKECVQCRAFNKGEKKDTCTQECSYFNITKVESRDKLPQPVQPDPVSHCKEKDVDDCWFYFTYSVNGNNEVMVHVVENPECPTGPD

| SMILES | IC50 (αvβ1) | IC50 (αvβ6) |
| --- | --- | --- |
| O=C(O)C[C@H](NC(=O)[C@@H]1CCCN(CCCc2ccc3c(n2)NCCC3)C1)c1cccc(OC2COC2)c1 [Compound 535] | < 100 nM | < 100 nM |
| O=C(O)C[C@H](NC(=O)[C@@H]1CCCN(CCCc2ccc3c(n2)NCCC3)C1)c1cccc(-n2cccc2)c1 [Compound 536] | < 100 nM | < 100 nM |
| COC(C)(C)C1Cc2c(cccc2C(CNC(=O)[C@@H]2CCCN(CCCc3ccc4c(n3)NCCC4)C2)C(=O)O)CO1 (some centres unmarked) [Compound 538] | < 100 nM | < 100 nM |
| O=C(O)C[C@H](NC(=O)[C@@H]1CCCN(CCCc2ccc3c(n2)NCCC3)C1)c1cnc2ccccc2n1 [Compound 539] | < 100 nM | < 100 nM |
| O=C(O)C[C@H](NC(=O)[C@@H]1CCCN(CCCc2ccc3c(n2)NCCC3)C1)c1cnc2ccccc2c1 [Compound 540] | 100 to 1000 nM | 100 to 1000 nM |
| O=C(O)C[C@H](NC(=O)[C@@H]1CCCN(CCCc2ccc3c(n2)NCCC3)C1)c1ccc2c(c1)C1(CC2)CC1 [Compound 541] | < 100 nM | < 100 nM |
| CN1CCc2cc(S(=O)(=O)N[C@@H](CNC(=O)[C@@H]3CCCN(CCCc4ccc5c(n4)NCCC5)C3)C(=O)O)ccc21 [Compound 542] | 100 to 1000 nM | < 100 nM |
| O=C(NC[C@H](NS(=O)(=O)c1cccc2c1CCC2)C(=O)O)[C@@H]1CCCN(CCCc2ccc3c(n2)NCCC3)C1 [Compound 543] | < 100 nM | < 100 nM |
| O=C(N[C@@H](CNC(=O)[C@@H]1CCCN(CCCc2ccc3c(n2)NCCC3)C1)C(=O)O)c1ccccc1 [Compound 544] | < 100 nM | < 100 nM |
| CC(C)(C(=O)N[C@@H](CNC(=O)[C@@H]1CCCN(CCCc2ccc3c(n2)NCCC3)C1)C(=O)O)c1ccccc1 [Compound 546] | < 100 nM | < 100 nM |
| O=C(NC[C@H](NC(=O)C1(c2ccccc2)CC1)C(=O)O)[C@@H]1CCCN(CCCc2ccc3c(n2)NCCC3)C1 [Compound 547] | < 100 nM | < 100 nM |
| O=C(N[C@@H](CNC(=O)[C@@H]1CCCN(CCCc2ccc3c(n2)NCCC3)C1)C(=O)O)c1cccc2c1CCC2 [Compound 549] | < 100 nM | < 100 nM |
| C[C@@H]1CCN(CCCc2ccc3c(n2)NCCC3)C[C@@H]1C(=O)N[C@@H](CC(=O)O)c1ccccc1 [Compound 551] | 100 to 1000 nM | < 100 nM |
| C[C@H]1C[C@@H](C(=O)N[C@@H](CC(=O)O)c2ccccc2)CN(CCCc2ccc3c(n2)NCCC3)C1 [Compound 552] | 100 to 1000 nM | 100 to 1000 nM |
| C[C@@H]1C[C@@H](C(=O)N[C@@H](CC(=O)O)c2ccccc2)CN(CCCc2ccc3c(n2)NCCC3)C1 [Compound 553] | 100 to 1000 nM | 100 to 1000 nM |
| C[C@H]1CC[C@@H](C(=O)N[C@@H](CC(=O)O)c2ccccc2)CN1CCCc1ccc2c(n1)NCCC2 [Compound 554] | > 1000 nM | 100 to 1000 nM |
| O=C(O)C[C@H](NC(=O)[C@]1(F)CCCN(CCCc2ccc3c(n2)NCCC3)C1)c1ccccc1 [Compound 555] | 100 to 1000 nM | 100 to 1000 nM |
| O=C(O)C[C@H](NC(=O)[C@@H]1CCCN(CCCc2ccc3c(n2)NCCC3)C1)c1ccccc1C1CC1 [Compound 556] | 100 to 1000 nM | 100 to 1000 nM |
| O=C(O)C[C@H](NC(=O)[C@@H]1CCCN(CCCc2ccc3c(n2)NCCC3)C1)c1ccc(C2CC2)cc1 [Compound 557] | > 1000 nM | 100 to 1000 nM |
| O=C(O)C[C@H](NC(=O)[C@@H]1CCCN(CCCc2ccc3c(n2)NCCC3)C1)c1cccc(C2CC2)c1F [Compound 559] | > 1000 nM | 100 to 1000 nM |
| O=C(NC[C@H](C(=O)O)c1cccc2c1CCC2)[C@@H]1CCCN(CCCc2ccc3c(n2)NCCC3)C1 [Compound 560] | 100 to 1000 nM | 100 to 1000 nM |
| O=C(NC[C@@H](C(=O)O)c1cccc2c1CCC2)[C@@H]1CCCN(CCCc2ccc3c(n2)NCCC3)C1 [Compound 561] | < 100 nM | < 100 nM |
| O=C(NC[C@H](Nc1ncnc2c(C(F)(F)F)cccc12)C(=O)O)[C@@H]1CCCN(CCCc2ccc3c(n2)NCCC3)C1 [Compound 562] | < 100 nM | < 100 nM |
| O=C(NC[C@H](Nc1ncncc1C(F)(F)F)C(=O)O)[C@@H]1CCCN(CCCc2ccc3c(n2)NCCC3)C1 [Compound 563] | < 100 nM | < 100 nM |
| O=C(NC[C@H](C(=O)O)c1cccc(N2C[C@H]3CC[C@@H]2CO3)c1)[C@@H]1CCCN(CCCc2ccc3c(n2)NCCC3)C1 [Compound 565] | < 100 nM | < 100 nM |
| O=C(NC[C@H](C(=O)O)c1cccc(N2C[C@@H]3CC[C@H]2CO3)c1)[C@@H]1CCCN(CCCc2ccc3c(n2)NCCC3)C1 [Compound 566] | < 100 nM | < 100 nM |

| SMILES | IC50 (αvβ1) | IC50 (αvβ6) |
| --- | --- | --- |
| O=C(Nc1ccccc1)N[C@@H](CNC(=O)[C@@H]1CCCN(CCCc2ccc3c(n2)NCCC3)C1)C(=O)O [Compound 567] | < 100 nM | < 100 nM |
| CC1(C)CN(c2cccc([C@@H](CO[C@@H]3CCCN(CCCc4ccc5c(n4)NCCC5)C3)CC(=O)O)c2)CCO1 [Compound 568] | < 100 nM | < 100 nM |
| CC1(C)CN(c2cccc([C@H](CO[C@@H]3CCCN(CCCc4ccc5c(n4)NCCC5)C3)CC(=O)O)c2)CCO1 [Compound 569] | 100 to 1000 nM | 100 to 1000 nM |
| CC1(C)CCCN(c2cccc([C@@H](CO[C@@H]3CCCN(CCCc4ccc5c(n4)NCCC5)C3)CC(=O)O)c2)C1 [Compound 570] | < 100 nM | < 100 nM |
| CC1(C)CCN(c2cccc([C@@H](CO[C@@H]3CCCN(CCCc4ccc5c(n4)NCCC5)C3)CC(=O)O)c2)CC1 [Compound 571] | < 100 nM | < 100 nM |
| CC1(C)CCCN(c2cccc([C@H](CO[C@@H]3CCCN(CCCc4ccc5c(n4)NCCC5)C3)CC(=O)O)c2)C1 [Compound 572] | < 100 nM | < 100 nM |
| CC1(C)CCN(c2cccc([C@H](CO[C@@H]3CCCN(CCCc4ccc5c(n4)NCCC5)C3)CC(=O)O)c2)CC1 [Compound 573] | 100 to 1000 nM | 100 to 1000 nM |
| Cc1cc(C)n(-c2cccc([C@@H](CO[C@@H]3CCCN(CCCc4ccc5c(n4)NCCC5)C3)CC(=O)O)c2)n1 [Compound 574] | < 100 nM | < 100 nM |
| Cc1cc(C)n(-c2cccc([C@H](CO[C@@H]3CCCN(CCCc4ccc5c(n4)NCCC5)C3)CC(=O)O)c2)n1 [Compound 575] | 100 to 1000 nM | < 100 nM |
| Cc1cc(C(F)(F)F)nn1-c1cccc([C@@H](CO[C@@H]2CCCN(CCCc3ccc4c(n3)NCCC4)C2)CC(=O)O)c1 [Compound 576] | < 100 nM | < 100 nM |
| Cc1cc(C(F)(F)F)nn1-c1cccc([C@H](CO[C@@H]2CCCN(CCCc3ccc4c(n3)NCCC4)C2)CC(=O)O)c1 [Compound 577] | < 100 nM | < 100 nM |
| CC1(C)CN(c2cc([C@@H](CO[C@@H]3CCCN(CCCc4ccc5c(n4)NCCC5)C3)CC(=O)O)ccc2F)CCO1 [Compound 578] | < 100 nM | < 100 nM |
| Cc1cc([C@@H](CO[C@@H]2CCCN(CCCc3ccc4c(n3)NCCC4)C2)CC(=O)O)cc(N2CCOC(C)(C)C2)c1 [Compound 579] | < 100 nM | < 100 nM |
| CC1(C)CN(c2cc([C@H](CO[C@@H]3CCCN(CCCc4ccc5c(n4)NCCC5)C3)CC(=O)O)ccc2F)CCO1 [Compound 580] | < 100 nM | < 100 nM |
| Cc1cc([C@H](CO[C@@H]2CCCN(CCCc3ccc4c(n3)NCCC4)C2)CC(=O)O)cc(N2CCOC(C)(C)C2)c1 [Compound 581] | 100 to 1000 nM | 100 to 1000 nM |
| C[C@H]1OCCN(c2cccc([C@H](CC(=O)O)NC(=O)[C@@H]3CCCN(CCCc4ccc5c(n4)NCCC5)C3)c2)[C@H]1C [Compound 582] | < 100 nM | < 100 nM |
| C[C@@H]1OCCN(c2cccc([C@H](CC(=O)O)NC(=O)[C@@H]3CCCN(CCCc4ccc5c(n4)NCCC5)C3)c2)[C@@H]1C [Compound 583] | < 100 nM | < 100 nM |
| C[C@@H]1OCCN(c2cccc([C@H](CC(=O)O)NC(=O)[C@@H]3CCCN(CCCc4ccc5c(n4)NCCC5)C3)c2)[C@H]1C [Compound 584] | < 100 nM | < 100 nM |
| C[C@@H]1[C@@H](C)OCCN1c1cccc([C@H](CC(=O)O)NC(=O)[C@@H]2CCCN(CCCc3ccc4c(n3)NCCC4)C2)c1 [Compound 585] | < 100 nM | < 100 nM |
| Cc1cc(C)n(-c2cccc([C@H](CC(=O)O)NC(=O)[C@@H]3CCCN(CCCc4ccc5c(n4)NCCC5)C3)c2)c1 [Compound 586] | < 100 nM | < 100 nM |
| CC1(C)CN(c2cccc([C@H](CC(=O)O)NC(=O)[C@@H]3CCCN(CCCc4ccc5c(n4)NCCC5)C3)c2)CC(C)(C)C1 [Compound 587] | < 100 nM | < 100 nM |
| O=C(NC[C@@H](Nc1ccccc1C1CC(F)(F)C1)C(=O)O)[C@@H]1CCCN(CCCc2ccc3c(n2)NCCC3)C1 [Compound 588] | < 100 nM | < 100 nM |
| O=C(NC[C@@H](Nc1cccc(C2CC(F)(F)C2)c1)C(=O)O)[C@@H]1CCCN(CCCc2ccc3c(n2)NCCC3)C1 [Compound 589] | < 100 nM | < 100 nM |
| O=C(NC[C@@H](Nc1cccnc1C1CC(F)(F)C1)C(=O)O)[C@@H]1CCCN(CCCc2ccc3c(n2)NCCC3)C1 [Compound 593] | < 100 nM | < 100 nM |
| CC1(C)CN(c2cccc([C@@H](CNC(=O)[C@@H]3CCCN(CCCc4ccc5c(n4)NCCC5)C3)C(=O)O)c2)CCO1 [Compound 595] | < 100 nM | < 100 nM |
| CC1(C)COCCN1c1cccc([C@@H](CNC(=O)[C@@H]2CCCN(CCCc3ccc4c(n3)NCCC4)C2)C(=O)O)c1 [Compound 597] | < 100 nM | < 100 nM |
